Data as given in PubChem BioAssay (NCI).
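Each compound was tested at five concentrations against cells in 96-well plates for 48 hours. At the TGI there is no net growth.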

Columns and labels:
Test in all cases: NCI-60 cell line screen, 48 h
786-0 renal = system: 786-0 renal
A498 renal = system: A498 renal
A549 NSCLC = system: A549 NSCLC
ACHN renal = system: ACHN renal
BT-549 breast = system: BT-549 breast
CAKI-1 renal = system: CAKI-1 renal
CCRF-CEM leukemia = system: CCRF-CEM leukemia
COLO 205 colon = system: COLO 205 colon
DU-145 prostate = system: DU-145 prostate
HCC-2998 colon = system: HCC-2998 colon
HCT-116 colon = system: HCT-116 colon
HCT-15 colon = system: HCT-15 colon
HL-60(TB) leukemia = system: HL-60(TB) leukemia
HOP-62 NSCLC = system: HOP-62 NSCLC
HT29 colon = system: HT29 colon
IGROV1 ovarian = system: IGROV1 ovarian
K-562 leukemia = system: K-562 leukemia
KM12 colon = system: KM12 colon
M14 melanoma = system: M14 melanoma
MALME-3M melanoma = system: MALME-3M melanoma
MCF7 breast = system: MCF7 breast
MDA-MB-231 breast = system: MDA-MB-231 breast
MDA-MB-435 = system: MDA-MB-435
MDA-N = system: MDA-N
MOLT-4 leukemia = system: MOLT-4 leukemia
NCI-H226 lung = system: NCI-H226 lung
NCI-H460 lung = system: NCI-H460 lung
NCI-H522 lung = system: NCI-H522 lung
NCI/ADR-RES ovarian = system: NCI/ADR-RES ovarian
OVCAR-3 ovarian = system: OVCAR-3 ovarian
OVCAR-4 ovarian = system: OVCAR-4 ovarian
OVCAR-5 ovarian = system: OVCAR-5 ovarian
OVCAR-8 ovarian = system: OVCAR-8 ovarian
PC-3 prostate = system: PC-3 prostate
RPMI-8226 leukemia = system: RPMI-8226 leukemia
RXF 393 renal = system: RXF 393 renal
SF-268 CNS = system: SF-268 CNS
SF-295 CNS = system: SF-295 CNS
SF-539 CNS = system: SF-539 CNS
SK-MEL-2 melanoma = system: SK-MEL-2 melanoma
SK-MEL-28 melanoma = system: SK-MEL-28 melanoma
SK-MEL-5 melanoma = system: SK-MEL-5 melanoma
SK-OV-3 ovarian = system: SK-OV-3 ovarian
SN12C renal = system: SN12C renal
SR leukemia = system: SR leukemia
T-47D breast = system: T-47D breast
TK-10 renal = system: TK-10 renal
U251 CNS = system: U251 CNS
UACC-62 melanoma = system: UACC-62 melanoma
UO-31 renal = system: UO-31 renal
EKVX NSCLC = system: EKVX NSCLC
HS 578T breast = system: HS 578T breast
LOX IMVI melanoma = system: LOX IMVI melanoma
NCI-H23 lung = system: NCI-H23 lung
SNB-19 CNS = system: SNB-19 CNS
SNB-75 CNS = system: SNB-75 CNS
SW-620 colon = system: SW-620 colon
UACC-257 melanoma = system: UACC-257 melanoma

Compound: Cc1cc(S(=O)(=O)N/C(=C(\C#N)C(=O)c2ccc(Cl)cc2)[n+]2ccc(N(C)C)cc2)c([S-])cc1Cl
- TGI (786-0 renal): > 100 µM
- TGI (A498 renal): 56.6 µM
- TGI (A549 NSCLC): > 100 µM
- TGI (ACHN renal): > 100 µM
- TGI (BT-549 breast): > 100 µM
- TGI (CAKI-1 renal): > 100 µM
- TGI (CCRF-CEM leukemia): > 100 µM
- TGI (COLO 205 colon): > 100 µM
- TGI (DU-145 prostate): > 100 µM
- TGI (HCC-2998 colon): > 100 µM
- TGI (HCT-116 colon): 37.3 µM
- TGI (HCT-15 colon): > 100 µM
- TGI (HL-60(TB) leukemia): > 100 µM
- TGI (HOP-62 NSCLC): > 100 µM
- TGI (HT29 colon): 95.1 µM
- TGI (IGROV1 ovarian): > 100 µM
- TGI (K-562 leukemia): > 100 µM
- TGI (KM12 colon): > 100 µM
- TGI (M14 melanoma): > 100 µM
- TGI (MALME-3M melanoma): 80 µM
- TGI (MCF7 breast): > 100 µM
- TGI (MDA-MB-231 breast): > 100 µM
- TGI (MDA-MB-435): > 100 µM
- TGI (MDA-N): > 100 µM
- TGI (MOLT-4 leukemia): > 100 µM
- TGI (NCI-H226 lung): > 100 µM
- TGI (NCI-H460 lung): > 100 µM
- TGI (NCI-H522 lung): > 100 µM
- TGI (NCI/ADR-RES ovarian): > 100 µM
- TGI (OVCAR-3 ovarian): > 100 µM
- TGI (OVCAR-4 ovarian): > 100 µM
- TGI (OVCAR-5 ovarian): > 100 µM
- TGI (OVCAR-8 ovarian): > 100 µM
- TGI (PC-3 prostate): > 100 µM
- TGI (RPMI-8226 leukemia): > 100 µM
- TGI (RXF 393 renal): > 100 µM
- TGI (SF-268 CNS): > 100 µM
- TGI (SF-295 CNS): > 100 µM
- TGI (SF-539 CNS): > 100 µM
- TGI (SK-MEL-2 melanoma): 83.4 µM
- TGI (SK-MEL-28 melanoma): > 100 µM
- TGI (SK-MEL-5 melanoma): > 100 µM
- TGI (SK-OV-3 ovarian): 96.7 µM
- TGI (SN12C renal): > 100 µM
- TGI (SR leukemia): > 100 µM
- TGI (T-47D breast): > 100 µM
- TGI (TK-10 renal): > 100 µM
- TGI (U251 CNS): > 100 µM
- TGI (UACC-62 melanoma): > 100 µM
- TGI (UO-31 renal): > 100 µM

Compound: C[C@@H]1[C@H](C)N1CC(O)Cn1ccnc1[N+](=O)[O-] (stereo partly specified)
- TGI (786-0 renal): > 100 µM
- TGI (A498 renal): > 100 µM
- TGI (A549 NSCLC): > 100 µM
- TGI (ACHN renal): > 100 µM
- TGI (CAKI-1 renal): > 100 µM
- TGI (CCRF-CEM leukemia): > 100 µM
- TGI (COLO 205 colon): > 100 µM
- TGI (DU-145 prostate): > 100 µM
- TGI (EKVX NSCLC): > 100 µM
- TGI (HCC-2998 colon): > 100 µM
- TGI (HCT-116 colon): > 100 µM
- TGI (HCT-15 colon): > 100 µM
- TGI (HL-60(TB) leukemia): > 100 µM
- TGI (HOP-62 NSCLC): > 100 µM
- TGI (HS 578T breast): > 100 µM
- TGI (HT29 colon): > 100 µM
- TGI (IGROV1 ovarian): > 100 µM
- TGI (K-562 leukemia): > 100 µM
- TGI (KM12 colon): > 100 µM
- TGI (LOX IMVI melanoma): > 100 µM
- TGI (M14 melanoma): > 100 µM
- TGI (MALME-3M melanoma): > 100 µM
- TGI (MCF7 breast): > 100 µM
- TGI (MDA-MB-231 breast): > 100 µM
- TGI (MDA-MB-435): > 100 µM
- TGI (MDA-N): > 100 µM
- TGI (MOLT-4 leukemia): > 100 µM
- TGI (NCI-H226 lung): > 100 µM
- TGI (NCI-H23 lung): > 100 µM
- TGI (NCI-H460 lung): > 100 µM
- TGI (NCI-H522 lung): > 100 µM
- TGI (NCI/ADR-RES ovarian): > 100 µM
- TGI (OVCAR-3 ovarian): > 100 µM
- TGI (OVCAR-4 ovarian): > 100 µM
- TGI (OVCAR-5 ovarian): > 100 µM
- TGI (OVCAR-8 ovarian): > 100 µM
- TGI (PC-3 prostate): > 100 µM
- TGI (RXF 393 renal): > 100 µM
- TGI (SF-268 CNS): > 100 µM
- TGI (SF-295 CNS): > 100 µM
- TGI (SF-539 CNS): > 100 µM
- TGI (SK-MEL-2 melanoma): > 100 µM
- TGI (SK-MEL-28 melanoma): > 100 µM
- TGI (SK-MEL-5 melanoma): > 100 µM
- TGI (SK-OV-3 ovarian): > 100 µM
- TGI (SN12C renal): > 100 µM
- TGI (SNB-19 CNS): > 100 µM
- TGI (SNB-75 CNS): > 100 µM
- TGI (SR leukemia): > 100 µM
- TGI (SW-620 colon): > 100 µM
- TGI (T-47D breast): > 100 µM
- TGI (TK-10 renal): > 100 µM
- TGI (U251 CNS): > 100 µM
- TGI (UACC-257 melanoma): > 100 µM
- TGI (UACC-62 melanoma): > 100 µM
- TGI (UO-31 renal): > 100 µM
